# According to patent US7381521B2, “Anti-pathogenic composition useful in blood preservation” (Altachem Pharma Ltd., priority 2001, dated 2008):
# What was measured:
# E. coli ATCC 11229 = assay: Test 2 (DGHM), growth inhibition by dilutions, 72 hours at 37° C.; type: cell-based, Escherichia coli
# Procedure: (§1) Another test was carried out a basis of the following solutions • 100 ml of a 0.1% solution of chlorohexidine digluconate (pH 6); and • 100 ml of a 0.1% solution of Bardac22®.
# (§2) The activity of these solutions, alone or in combination, was more particularly tested in respect of Staphylococcus aureus ATCC 6538, Escherichia coli ATCC 11229 and Candida albicans ATCC 10231.
# (§3) The tests were conducted in accordance with the procedure described in Chapter I/2.1 and 2.2 of Tichtlinien für die Prüfung und Bewertung chemischer Desinfektionsverfahren der DGHM/Guidelines for Testing and Evaluating Chemical Disinfection Processes of DGHM as at 1.1, 1981.
# (§4) Tables IX, X and XI respectively illustrate the bactericidal and fungicidal activity of a 0.1% aqueous solution of chlorohexidine digluconate, a 0.1% aqueous solution of Bardac22® and a mixture of equal parts of both compounds. The procedures of which these Tables illustrate the results comprise incubation of 72 hours at 37° C. and the use of the following inactivating substances as controls: • A: 3% Tween®80+0.3% lecithin+0.1% cysteine • B: 3% Tween®80+3% saponin+0.1% cysteine+0.1% histidine; • C: 3% Tween®80+0.3% lecithin+0.1% histidine+0.5% sodium thiosulphate.
# (§5) In these Tables, the sign “+” indicates an increase and the sign “−” denotes the absence of growth.
# [1] = system: Candida albicans ATCC 1031; assay: as above; type: cell-based
# Procedure: as §1, §2, §3, §4, §5
# S. aureus ATCC 6538 = assay: Test 2 (DGHM), action as a function of disinfection time at 22° C., 8 × 10^8 organisms/ml; type: cell-based, Staphylococcus aureus
# Procedure: as §1, §2, §3
# [2] = 0.00625% vol/vol, inactivator A
# [3] = 0.00625% vol/vol, inactivator B
# [4] = 0.00625% vol/vol, inactivator C
# [5] = 0.00625% vol/vol, no inactivator
# [6] = 0.0125% vol/vol, no inactivator
smiles,measurement,setting,value
"[H]/N=C(\N/C(=N/[H])NCCCCCCNC(=N)NC(=N)Nc1ccc(Cl)cc1)Nc1ccc(Cl)cc1 [Chlorhexidine, chlorohexidine digluconate, reference compound]",concentration of active substance inhibiting growth,E. coli ATCC 11229,0.0005%
same,dilution of the 0.1% solution inhibiting growth,E. coli ATCC 11229,0.5%
same,growth,E. coli ATCC 11229; [2],+
same,growth,E. coli ATCC 11229; [3],+
same,growth,E. coli ATCC 11229; [4],+
same,growth,E. coli ATCC 11229; [5],+
same,growth,"E. coli ATCC 11229; 0.0125% vol/vol, inactivator A",+
same,growth,"E. coli ATCC 11229; 0.0125% vol/vol, inactivator B",+
same,growth,"E. coli ATCC 11229; 0.0125% vol/vol, inactivator C",+
same,growth,E. coli ATCC 11229; [6],+
same,growth,"E. coli ATCC 11229; 0.025% vol/vol, inactivator A",+
same,growth,"E. coli ATCC 11229; 0.025% vol/vol, inactivator B",+
same,growth,"E. coli ATCC 11229; 0.025% vol/vol, inactivator C",+
same,growth,"E. coli ATCC 11229; 0.025% vol/vol, no inactivator",+
same,growth,"E. coli ATCC 11229; 0.05% vol/vol, inactivator A",+
same,growth,"E. coli ATCC 11229; 0.05% vol/vol, inactivator B",+
same,growth,"E. coli ATCC 11229; 0.05% vol/vol, inactivator C",+
same,growth,"E. coli ATCC 11229; 0.05% vol/vol, no inactivator",+
same,growth,"E. coli ATCC 11229; 0.1% vol/vol, inactivator A",+
same,growth,"E. coli ATCC 11229; 0.1% vol/vol, inactivator B",+
same,growth,"E. coli ATCC 11229; 0.1% vol/vol, inactivator C",+
same,growth,"E. coli ATCC 11229; 0.1% vol/vol, no inactivator",+
same,growth,"E. coli ATCC 11229; 0.5% vol/vol, inactivator A",+
same,growth,"E. coli ATCC 11229; 0.5% vol/vol, inactivator B",+
same,growth,"E. coli ATCC 11229; 0.5% vol/vol, inactivator C",+
same,growth,"E. coli ATCC 11229; 0.5% vol/vol, no inactivator",−
same,growth,"E. coli ATCC 11229; 1.0% vol/vol, inactivator A",+
same,growth,"E. coli ATCC 11229; 1.0% vol/vol, inactivator B",+
same,growth,"E. coli ATCC 11229; 1.0% vol/vol, inactivator C",+
same,growth,"E. coli ATCC 11229; 1.0% vol/vol, no inactivator",−
same,concentration of active substance inhibiting growth,[1],0.001%
same,dilution of the 0.1% solution inhibiting growth,[1],1%
same,growth,[1]; [2],+
same,growth,[1]; [3],+
same,growth,[1]; [4],+
same,growth,[1]; [5],+
same,growth,"[1]; 0.0125% vol/vol, inactivator A",+
same,growth,"[1]; 0.0125% vol/vol, inactivator B",+
same,growth,"[1]; 0.0125% vol/vol, inactivator C",+
same,growth,[1]; [6],+
same,growth,"[1]; 0.025% vol/vol, inactivator A",+
same,growth,"[1]; 0.025% vol/vol, inactivator B",+
same,growth,"[1]; 0.025% vol/vol, inactivator C",+
same,growth,"[1]; 0.025% vol/vol, no inactivator",+
same,growth,"[1]; 0.05% vol/vol, inactivator A",+
same,growth,"[1]; 0.05% vol/vol, inactivator B",+
same,growth,"[1]; 0.05% vol/vol, inactivator C",+
same,growth,"[1]; 0.05% vol/vol, no inactivator",+
same,growth,"[1]; 0.1% vol/vol, inactivator A",+
same,growth,"[1]; 0.1% vol/vol, inactivator B",+
same,growth,"[1]; 0.1% vol/vol, inactivator C",+
same,growth,"[1]; 0.1% vol/vol, no inactivator",+
same,growth,"[1]; 0.5% vol/vol, inactivator A",+
same,growth,"[1]; 0.5% vol/vol, inactivator B",+
same,growth,"[1]; 0.5% vol/vol, inactivator C",+
same,growth,"[1]; 0.5% vol/vol, no inactivator",+
same,growth,"[1]; 1.0% vol/vol, inactivator A",+
same,growth,"[1]; 1.0% vol/vol, inactivator B",+
same,growth,"[1]; 1.0% vol/vol, inactivator C",+
same,growth,"[1]; 1.0% vol/vol, no inactivator",−
same,growth,"S. aureus ATCC 6538; 0.05% vol/vol, 1 min",+
same,growth,"S. aureus ATCC 6538; 0.05% vol/vol, 3 min",+
same,growth,"S. aureus ATCC 6538; 0.05% vol/vol, 5 min",+
same,growth,"S. aureus ATCC 6538; 0.05% vol/vol, 15 min",+
same,growth,"S. aureus ATCC 6538; 0.05% vol/vol, 30 min",+
same,growth,"S. aureus ATCC 6538; 0.05% vol/vol, 60 min",+
same,growth,"S. aureus ATCC 6538; 0.1% vol/vol, 1 min",+
same,growth,"S. aureus ATCC 6538; 0.1% vol/vol, 3 min",+
same,growth,"S. aureus ATCC 6538; 0.1% vol/vol, 5 min",+
same,growth,"S. aureus ATCC 6538; 0.1% vol/vol, 15 min",+
same,growth,"S. aureus ATCC 6538; 0.1% vol/vol, 30 min",+
same,growth,"S. aureus ATCC 6538; 0.1% vol/vol, 60 min",+
